As a reminder, the pIC50 is the negative decadic logarithm of the IC50, by convention in mol/L. Read a low pIC50 as a high IC50. As a reminder, the melting point is the temperature, or range, at which the solid turns liquid.

Each structure is given as a SMILES string. pIC50: −log10 of the molar value. Some results are limits rather than exact numbers.

The results in this text go back to patent publication US6770669B1, “Amidine derivatives, preparation and use thereof as medicines” (Societe de Conseils de Recherches et d'Applications …, priority 1999, dated 2004).

Series [1] concerns the target T1, neuronal constitutive NO synthase (Rattus norvegicus, UniProt P29476).
T1 construct: The reaction is initiated by adding 50 μl of homogenate; from tissue; host or cells: cerebellum of Sprague-Dawley rats (homogenate centrifuged at 21000 g)
Briefly: Effects on neuronal constitutive NO synthase of a rat's cerebellum ([3H]L-arginine to [3H]L-citrulline conversion). It counts as biochemical. Particulars: rat cerebellum homogenate; conversion of [3H]L-arginine to [3H]L-citrulline. The procedure:
Study of the Effects on Neuronal Constitutive NO Synthase of a Rat's Cerebellum
The inhibitory activity of the products of the invention is determined by measuring their effects on the conversion by NO synthase of [^3H]L-arginine to [^3H]L-citrulline according to the modified method of Bredt and Snyder (Proc. Natl. Acad. Sci. USA. (1990) 87: 682-685). The cerebellums of Sprague-Dawley rats (300 g—Charles River) are rapidly removed, dissected at 4° C. and homogenized in a volume of extraction buffer (HEPES 50 mM, EDTA 1 mM, pH 7.4, pepstatin A […], leupeptin […]). The homogenates are then centrifuged at 21000 g for 15 min at 4° C. Dosage is carried out in glass test tubes in which 100 μl of incubation buffer containing 100 mM of HEPES (pH 7.4), 2 mM of EDTA, 2.5 mM of CaCl2, 2 mM of dithiotreitol, 2 mM of reduced NADPH and 10 μg/ml of calmodulin are distributed. 25 μl of a solution containing 100 nM of [^3H]L-arginine (Specific activity: 56.4 Ci/mmole, Amersham) and 40 μM of non-radioactive L-arginine is added. The reaction is initiated by adding 50 μl of homogenate, the final volume being 200 μl (the missing 25 μl are either water or the tested product). […] After passing the samples through a 1 ml column of DOWEX resin, the radioactivity is quantified by a liquid scintillation spectrometer.

The target in a further series is T2, MAO-B (Rattus norvegicus, UniProt P19643).
T2 construct: 100 μl of the mitochondrial preparation (2 mg protein/ml) is incubated for 1 hour at 37° C; from tissue; host or cells: rat cortex, mitochondrial fraction
T2 sequence (P19643 1-520): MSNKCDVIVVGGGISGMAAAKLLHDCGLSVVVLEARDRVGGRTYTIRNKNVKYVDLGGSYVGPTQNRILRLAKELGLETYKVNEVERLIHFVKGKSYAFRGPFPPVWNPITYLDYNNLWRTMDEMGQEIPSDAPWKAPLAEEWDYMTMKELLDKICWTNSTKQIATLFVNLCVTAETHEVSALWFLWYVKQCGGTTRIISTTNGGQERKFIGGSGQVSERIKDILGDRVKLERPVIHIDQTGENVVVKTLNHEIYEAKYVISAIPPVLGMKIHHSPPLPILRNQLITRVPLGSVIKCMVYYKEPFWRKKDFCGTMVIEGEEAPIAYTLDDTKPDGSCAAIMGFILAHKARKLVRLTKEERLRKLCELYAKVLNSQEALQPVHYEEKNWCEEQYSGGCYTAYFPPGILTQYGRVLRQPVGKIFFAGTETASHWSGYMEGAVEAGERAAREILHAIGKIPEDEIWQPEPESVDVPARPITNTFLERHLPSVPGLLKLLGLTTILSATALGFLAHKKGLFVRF
Briefly: Effects on the bond of a specific ligand of MAO-B, [3H]Ro 19-6327 (rat cortex mitochondrial preparation). It counts as binding. The following applies: [3H]Ro 19-6327 33 nM, 1 hour at 37° C. The method, then: Study of the Effects on the Bond of a Specific Ligand of MAO-B, [^3H]Ro 19-6327
The inhibitory activity of the products of the invention is determined by measuring their effects on the bond of a specific ligand of MAO-B, [^3H]Ro 19-6327.
A) Mitochondrial Preparation of the Cortex of Rats
The mitochondrial preparation of the cortex of rats is carried out according to the method described in Cesura A M, Galva M D, Imhof R and Da Prada M, J. Neurochem. 48 (1987), 170-176. The rats are decapitated and their cortex is removed, homogenized in 9 volumes of a 0.32 M sucrose buffer, buffered to pH 7.4 with 5 mM of HEPES, then centrifuged at 800 g for 20 minutes. The supernatants are recovered and the pellets are washed twice with the 0.32 M sucrose buffer as previously. The collected supernatants are centrifuged at 10000 g for 20 minutes. […] The proteinic content of the preparation is determined by the Lowry method.
100 μl of the mitochondrial preparation (2 mg protein/ml) is incubated for 1 hour at 37° C. in an Eppendorf tube, in the presence of 100 μl of [^3H]Ro 19-6327 (33 nM, final concentration) and 100 μl of Tris buffer containing or not containing the inhibitors. […] The radioactivity is determined by counting the samples using liquid scintillation.

The molecule `C#CCN(C)Cc1ccc(N=C(N)c2cccs2)cc1` [Example 1, N′-(4-{[methyl(2-propynyl)amino]methyl}phenyl)-2-thiophenecarboximidamide] came in with a melting point of 109 to 110 °C. The pIC50 in series [1] was greater than 5.46. In addition, on MAO-B, the pIC50 is greater than 4.60.
